The text below walks through data of PMC6263166 (The protein journal, 2011).

Data set [1] concerns CYP1A2. The note with it: cited from earlier work.
The target in data set [2] is T1, CYP1A2 (Homo sapiens, UniProt P05177).
T1 sequence (P05177 1-516): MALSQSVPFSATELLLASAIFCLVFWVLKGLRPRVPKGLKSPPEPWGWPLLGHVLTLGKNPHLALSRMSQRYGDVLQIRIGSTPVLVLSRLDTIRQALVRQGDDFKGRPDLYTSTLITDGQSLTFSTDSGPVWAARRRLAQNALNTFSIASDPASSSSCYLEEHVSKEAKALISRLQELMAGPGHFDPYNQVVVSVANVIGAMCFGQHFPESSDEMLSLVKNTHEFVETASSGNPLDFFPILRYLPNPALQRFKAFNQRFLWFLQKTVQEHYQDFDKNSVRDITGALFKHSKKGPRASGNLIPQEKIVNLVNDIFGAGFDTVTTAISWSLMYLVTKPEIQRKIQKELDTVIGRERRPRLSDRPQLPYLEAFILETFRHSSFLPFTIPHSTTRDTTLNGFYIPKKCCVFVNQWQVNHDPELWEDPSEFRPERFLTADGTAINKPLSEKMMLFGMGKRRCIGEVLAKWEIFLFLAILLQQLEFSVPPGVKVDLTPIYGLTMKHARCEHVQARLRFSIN
Description: biochemical.

Data set [3] addresses T1, CYP1A2. Description: Inhibition matrix assay. The class given is biochemical.
Data set [4] has as its system CYP1A2. The settings on record: human liver microsomes, ethoxyresorufin as substrate; cited from earlier work. Background: Liver microsomes are a subcellular fraction often used to study metabolism.
Data set [5] deals with T1, CYP1A2. The settings on record: for concentrations at which hCYP1A2 was significantly inhibited: p < 0.05 compared to DMSO control, tested 0.005-1.5 μM.
Data set [6] addresses T1, CYP1A2. Description: Substrate protection. The class given is biochemical. The settings on record: 1.2 μM (KI) isopimpinellin.
Data set [7] concerns the target T1, CYP1A2. Description: Irreversibility of inactivation. It counts as biochemical.
Data set [8] deals with T1, CYP1A2.
Data set [9] addresses T1, CYP1A2. Put plainly: in vitro.
In data set [10] the target is T1, CYP1A2. Description: NADPH-dependent and GSH- and SOD-independent inactivation. It counts as biochemical. The settings on record: 8 μM isopimpinellin.
Data set [11] deals with T1, CYP1A2. Description: Partition ratio by titration of the enzyme with the inactivator. It counts as biochemical.
Where [12] appears, read: human liver microsomes, various substrates.

Read-outs that look alike come from different tables or passages of the source.

As to `Cc1nc2c([nH]1)c(=O)n(C)c(=O)n2Cc1ccco1` [furafylline], the partition ratio in data set [1] (furafylline-mediated CYP1A2 inactivation in previous studies) is given as […]. For the same compound, in data set [1] (setting [12]), the Ki is […] and the kinact was […].
For the compound `CC(C)=CCOc1c2occc2cc2ccc(=O)oc12` [imperatorin], the IC50 was 20 nM in [2] and 380 ± 120 nM in data set [4]. Further, in data set [3], the Ki stood at 7 nM. Also, the mode of inhibition entry in data set [3] (Dixon plots of the kinetics data) is given as “mixed inhibition”. In addition, in data set [5], the “concentrations at which hCYP1A2 was significantly inhibited” value was at least 5 nM.
For `COc1c2ccoc2c(OC)c2oc(=O)ccc12` [isopimpinellin], the “activity of hCYP1A2” value in [6] (0 μM methoxyresorufin in preincubation) came out at 31.8%; in data set [6] (0.4 μM methoxyresorufin in preincubation), 33.9%; in [6] (2.0 μM methoxyresorufin in preincubation), 36.9%; in data set [6] (10 μM methoxyresorufin in preincubation), 65.4%. Further, the IC50 in data set [2] is 460 nM; in data set [4] it was 860 ± 180 nM. The “activity remaining pre- and post-dialysis” value in [7] (6.4 μM, one assay with six replicates (assay development)) amounted to 24 ± 2%. In [7] (8 μM, after 20 h of dialysis), the “activity recovered after dialysis” value is given as “approximately 21%”. Moreover, the “t1/2 (time required for half the enzyme molecules to be inactivated)” value in data set [8] was determined as 2.05 ± 0.22 min. Moreover, the KI (inactivation) in [9] worked out at 1200 nM. The kinact in data set [9] was 0.00567 s⁻¹. Moreover, in data set [9], the kinact/KI is 5000 M⁻¹ s⁻¹. The “effect of GSH on inactivation” value in data set [10] (GSH 250 μM) is “GSH failed to protect the hCYP1A2 inactivation”. Besides, the “effect of SOD on inactivation” value in data set [10] (SOD 1000 units) was “SOD did not prevent hCYP1A2 from inactivation, but rather enhanced the inactivation”. Also, the “effect of NADPH on inactivation” value in data set [10] (with and without 250 μM NADPH) was “the lack of NADPH results in the loss of the inhibitory effect”. Besides, the partition ratio in data set [11] (0.25-64 μM, preincubation 30 min, extrapolated from lower ratio data points) was 8. For the same compound, in [11] (five highest concentration ratios of isopimpinellin to hCYP1A2), the “remaining CYP1A2 activity at high inactivator to enzyme ratios” value was “no remaining CYP1A2 activity”. Moreover, the “concentrations at which hCYP1A2 was significantly inhibited” value in data set [5] is at least 50 nM.
`Cc1cc2cc3c(C)cc(=O)oc3c(C)c2o1` [trioxsalen, reference compound] gave an IC50 in data set [2] of 790 nM. Also, in [3], the affinity corresponds to a Ki of 100 nM and the mode of inhibition entry is “mixed inhibition”.
In data set [2], `O=c1ccc2ccc3occc3c2o1` [angelicin] displayed an IC50 of 9600 nM. In [5] (p < 0.05, tested 0.5-150 μM), the “significance of hCYP1A2 inhibition” value was “significant hCYP1A2 inhibition at all tested concentrations”.

A word on the Ki: it is a dissociation constant, usually derived from enzyme kinetics or from competition with a known ligand. One may read the kinact as the rate constant of inactivation at saturating inhibitor. One may read the IC50 as the concentration at which inhibition is half-maximal. As a reminder, the kinact/KI is the maximal inactivation rate divided by the concentration that gives half of it.
